From ChEMBL document CHEMBL5291721, “A preclinical secondary pharmacology resource illuminates target-adverse drug reaction associations of marketed drugs” (Nat Commun, 2023)

What was measured:
[1] = biological target: cGMP-inhibited 3',5'-cyclic phosphodiesterase 3A (Homo sapiens, UniProt Q14432); format: functional
[2] = biological target: Sodium-dependent noradrenaline transporter (Homo sapiens, UniProt P23975)
[3] = biological target: 5-hydroxytryptamine receptor 2A (Homo sapiens, UniProt P28223); format: functional, cell-based
Mu-type opioid receptor = Mu-type opioid receptor (Homo sapiens, UniProt P35372)
[4] = biological target: T1, 5-hydroxytryptamine receptor 1A (Homo sapiens, UniProt P08908)
T1 sequence (P08908 whole entry): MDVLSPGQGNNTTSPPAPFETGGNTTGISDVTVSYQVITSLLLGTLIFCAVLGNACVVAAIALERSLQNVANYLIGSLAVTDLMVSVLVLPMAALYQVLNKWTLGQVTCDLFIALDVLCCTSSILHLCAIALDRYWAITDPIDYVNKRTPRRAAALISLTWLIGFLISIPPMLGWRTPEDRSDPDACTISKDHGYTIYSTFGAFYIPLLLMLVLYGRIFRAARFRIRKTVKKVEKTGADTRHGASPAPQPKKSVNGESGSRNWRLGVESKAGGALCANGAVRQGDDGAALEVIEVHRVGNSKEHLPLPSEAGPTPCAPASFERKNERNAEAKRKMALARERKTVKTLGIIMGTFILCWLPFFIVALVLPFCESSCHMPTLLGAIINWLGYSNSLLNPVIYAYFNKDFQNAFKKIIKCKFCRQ

[5] = biological target: T2, Alpha-1A adrenergic receptor (Homo sapiens, UniProt P35348); format: functional, cell-based
T2 sequence (P35348 whole entry): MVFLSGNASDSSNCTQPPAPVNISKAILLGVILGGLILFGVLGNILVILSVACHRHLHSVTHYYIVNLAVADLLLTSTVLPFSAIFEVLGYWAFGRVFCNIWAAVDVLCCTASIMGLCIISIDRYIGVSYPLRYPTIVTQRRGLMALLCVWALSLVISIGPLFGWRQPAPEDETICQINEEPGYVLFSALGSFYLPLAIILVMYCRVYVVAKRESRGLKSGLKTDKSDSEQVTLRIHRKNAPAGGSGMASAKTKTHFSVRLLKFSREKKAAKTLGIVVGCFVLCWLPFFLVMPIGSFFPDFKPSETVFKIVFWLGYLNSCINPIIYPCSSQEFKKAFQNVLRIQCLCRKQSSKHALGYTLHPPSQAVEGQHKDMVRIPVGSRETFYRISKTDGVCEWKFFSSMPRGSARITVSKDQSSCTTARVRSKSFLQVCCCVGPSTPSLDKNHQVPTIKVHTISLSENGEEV

[6] = biological target: T3, Alpha-2B adrenergic receptor (Homo sapiens, UniProt P18089)
T3 sequence (P18089 whole entry): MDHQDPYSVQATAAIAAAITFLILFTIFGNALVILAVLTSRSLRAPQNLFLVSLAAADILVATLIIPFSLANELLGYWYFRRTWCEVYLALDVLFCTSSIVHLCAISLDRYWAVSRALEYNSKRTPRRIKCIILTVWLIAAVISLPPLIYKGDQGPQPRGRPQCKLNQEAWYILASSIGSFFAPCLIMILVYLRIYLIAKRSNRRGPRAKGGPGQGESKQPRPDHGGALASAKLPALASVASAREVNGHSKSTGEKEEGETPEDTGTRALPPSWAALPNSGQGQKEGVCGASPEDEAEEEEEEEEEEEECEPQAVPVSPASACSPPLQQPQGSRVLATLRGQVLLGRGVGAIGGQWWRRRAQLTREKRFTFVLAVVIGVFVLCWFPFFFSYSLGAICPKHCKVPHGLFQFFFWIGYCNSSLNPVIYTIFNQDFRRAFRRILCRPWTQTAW

[7] = biological target: T4, Muscarinic acetylcholine receptor M2 (Homo sapiens, UniProt P08172); format: functional, cell-based
T4 sequence (P08172 whole entry): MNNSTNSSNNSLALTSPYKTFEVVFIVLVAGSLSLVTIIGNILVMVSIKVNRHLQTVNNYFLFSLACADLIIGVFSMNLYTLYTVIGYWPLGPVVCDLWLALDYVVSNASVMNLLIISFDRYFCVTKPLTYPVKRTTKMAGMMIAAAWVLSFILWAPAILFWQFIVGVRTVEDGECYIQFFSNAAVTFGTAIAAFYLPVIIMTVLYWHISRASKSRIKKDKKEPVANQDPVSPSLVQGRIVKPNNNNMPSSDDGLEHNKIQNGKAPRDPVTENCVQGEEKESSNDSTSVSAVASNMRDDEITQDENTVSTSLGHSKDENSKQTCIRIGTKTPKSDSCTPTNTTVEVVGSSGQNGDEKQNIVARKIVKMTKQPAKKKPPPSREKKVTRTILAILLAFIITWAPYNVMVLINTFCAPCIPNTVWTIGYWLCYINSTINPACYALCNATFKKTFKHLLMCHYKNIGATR

D(3) dopamine receptor = D(3) dopamine receptor (Homo sapiens, UniProt P35462)
[8] = biological target: Kappa-type opioid receptor (Homo sapiens, UniProt P41145)
Vasopressin V2 receptor = Vasopressin V2 receptor (Homo sapiens, UniProt P30518)
[9] = biological target: T5, Amine oxidase [flavin-containing] A (Homo sapiens, UniProt P21397); format: functional
T5 sequence (P21397 whole entry): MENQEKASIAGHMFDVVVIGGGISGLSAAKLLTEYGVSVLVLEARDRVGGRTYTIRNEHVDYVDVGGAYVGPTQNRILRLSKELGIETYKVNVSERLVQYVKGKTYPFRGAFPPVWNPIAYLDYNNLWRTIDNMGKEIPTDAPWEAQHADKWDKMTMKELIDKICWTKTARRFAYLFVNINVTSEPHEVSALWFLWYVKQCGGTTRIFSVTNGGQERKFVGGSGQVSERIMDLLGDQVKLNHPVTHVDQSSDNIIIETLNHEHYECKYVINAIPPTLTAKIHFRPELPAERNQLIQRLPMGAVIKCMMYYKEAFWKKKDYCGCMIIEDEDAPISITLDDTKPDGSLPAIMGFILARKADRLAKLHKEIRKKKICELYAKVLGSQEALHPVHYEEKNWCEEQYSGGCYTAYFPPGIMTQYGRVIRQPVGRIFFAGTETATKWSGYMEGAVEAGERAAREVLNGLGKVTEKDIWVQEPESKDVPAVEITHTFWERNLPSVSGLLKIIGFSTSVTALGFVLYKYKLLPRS

[10] = biological target: T2, Alpha-1A adrenergic receptor; format: functional, cell-based; remark: listed apart in the source
Note: assay procedure not described here.

Chain of D(3) dopamine receptor (P35462 whole entry): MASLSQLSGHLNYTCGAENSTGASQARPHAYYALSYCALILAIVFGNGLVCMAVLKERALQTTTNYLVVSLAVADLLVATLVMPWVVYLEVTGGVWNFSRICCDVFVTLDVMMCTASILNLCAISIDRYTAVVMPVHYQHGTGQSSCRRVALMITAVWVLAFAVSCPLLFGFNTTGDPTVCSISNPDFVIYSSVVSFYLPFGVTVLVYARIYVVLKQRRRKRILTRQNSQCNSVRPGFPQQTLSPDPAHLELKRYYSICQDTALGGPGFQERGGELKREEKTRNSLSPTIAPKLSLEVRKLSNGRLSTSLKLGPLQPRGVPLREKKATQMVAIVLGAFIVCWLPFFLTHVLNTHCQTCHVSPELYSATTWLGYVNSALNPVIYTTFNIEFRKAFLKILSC
Chain of cGMP-inhibited 3',5'-cyclic phosphodiesterase 3A (Q14432 whole entry): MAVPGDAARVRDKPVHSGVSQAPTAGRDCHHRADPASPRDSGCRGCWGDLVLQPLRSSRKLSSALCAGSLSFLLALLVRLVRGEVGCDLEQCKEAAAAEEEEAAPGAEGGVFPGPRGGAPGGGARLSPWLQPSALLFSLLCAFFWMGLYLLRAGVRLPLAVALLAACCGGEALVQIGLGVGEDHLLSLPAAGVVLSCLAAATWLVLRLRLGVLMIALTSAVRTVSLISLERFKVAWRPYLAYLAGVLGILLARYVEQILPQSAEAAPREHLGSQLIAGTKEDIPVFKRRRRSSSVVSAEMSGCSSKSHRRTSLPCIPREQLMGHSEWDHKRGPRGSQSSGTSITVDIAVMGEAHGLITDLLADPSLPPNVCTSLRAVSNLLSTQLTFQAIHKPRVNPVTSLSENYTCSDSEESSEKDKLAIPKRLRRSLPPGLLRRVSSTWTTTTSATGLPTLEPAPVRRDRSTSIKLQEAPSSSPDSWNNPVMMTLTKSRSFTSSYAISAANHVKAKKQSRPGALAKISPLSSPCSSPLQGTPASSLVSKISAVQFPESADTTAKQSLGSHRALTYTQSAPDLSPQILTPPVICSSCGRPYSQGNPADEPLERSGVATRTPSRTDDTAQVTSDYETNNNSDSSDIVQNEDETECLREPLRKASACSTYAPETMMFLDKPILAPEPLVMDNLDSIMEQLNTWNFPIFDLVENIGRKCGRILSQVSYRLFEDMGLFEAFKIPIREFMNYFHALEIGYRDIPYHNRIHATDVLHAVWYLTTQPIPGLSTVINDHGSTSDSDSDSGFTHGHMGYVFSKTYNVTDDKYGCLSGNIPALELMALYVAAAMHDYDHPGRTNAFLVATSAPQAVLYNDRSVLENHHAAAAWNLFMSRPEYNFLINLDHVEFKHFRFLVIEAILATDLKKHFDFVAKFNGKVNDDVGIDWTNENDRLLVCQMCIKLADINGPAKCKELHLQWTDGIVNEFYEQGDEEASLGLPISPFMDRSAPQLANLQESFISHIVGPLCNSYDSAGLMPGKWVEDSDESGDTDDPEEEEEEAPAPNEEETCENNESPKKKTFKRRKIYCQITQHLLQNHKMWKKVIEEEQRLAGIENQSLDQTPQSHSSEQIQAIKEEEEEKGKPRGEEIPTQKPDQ
Chain of Kappa-type opioid receptor (P41145 whole entry): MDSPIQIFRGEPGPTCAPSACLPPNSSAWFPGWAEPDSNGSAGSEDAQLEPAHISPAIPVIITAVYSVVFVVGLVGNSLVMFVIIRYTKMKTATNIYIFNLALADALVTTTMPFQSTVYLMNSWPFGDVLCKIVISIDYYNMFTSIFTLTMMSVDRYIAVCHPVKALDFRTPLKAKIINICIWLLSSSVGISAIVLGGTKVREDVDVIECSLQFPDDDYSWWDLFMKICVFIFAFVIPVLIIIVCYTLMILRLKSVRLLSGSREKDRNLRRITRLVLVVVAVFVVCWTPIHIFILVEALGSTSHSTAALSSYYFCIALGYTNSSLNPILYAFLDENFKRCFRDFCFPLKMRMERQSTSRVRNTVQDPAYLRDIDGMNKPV
Chain of Sodium-dependent noradrenaline transporter (P23975 whole entry): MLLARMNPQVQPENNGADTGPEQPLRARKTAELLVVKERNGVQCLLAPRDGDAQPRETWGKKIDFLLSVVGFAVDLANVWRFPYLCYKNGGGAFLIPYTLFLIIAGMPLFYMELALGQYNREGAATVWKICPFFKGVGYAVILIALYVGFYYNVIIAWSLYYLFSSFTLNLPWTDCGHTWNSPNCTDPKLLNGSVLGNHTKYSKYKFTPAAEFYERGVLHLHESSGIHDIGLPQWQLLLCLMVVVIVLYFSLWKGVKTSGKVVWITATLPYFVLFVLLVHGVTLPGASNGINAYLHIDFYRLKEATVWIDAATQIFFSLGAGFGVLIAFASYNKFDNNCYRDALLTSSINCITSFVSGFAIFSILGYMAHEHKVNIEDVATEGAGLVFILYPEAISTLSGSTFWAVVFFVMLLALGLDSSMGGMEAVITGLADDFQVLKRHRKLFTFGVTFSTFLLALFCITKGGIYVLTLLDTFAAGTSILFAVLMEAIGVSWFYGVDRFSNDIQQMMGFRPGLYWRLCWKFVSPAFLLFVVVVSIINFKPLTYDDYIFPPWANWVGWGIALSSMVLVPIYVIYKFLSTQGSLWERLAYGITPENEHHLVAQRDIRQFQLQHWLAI
Chain of Mu-type opioid receptor (P35372 whole entry): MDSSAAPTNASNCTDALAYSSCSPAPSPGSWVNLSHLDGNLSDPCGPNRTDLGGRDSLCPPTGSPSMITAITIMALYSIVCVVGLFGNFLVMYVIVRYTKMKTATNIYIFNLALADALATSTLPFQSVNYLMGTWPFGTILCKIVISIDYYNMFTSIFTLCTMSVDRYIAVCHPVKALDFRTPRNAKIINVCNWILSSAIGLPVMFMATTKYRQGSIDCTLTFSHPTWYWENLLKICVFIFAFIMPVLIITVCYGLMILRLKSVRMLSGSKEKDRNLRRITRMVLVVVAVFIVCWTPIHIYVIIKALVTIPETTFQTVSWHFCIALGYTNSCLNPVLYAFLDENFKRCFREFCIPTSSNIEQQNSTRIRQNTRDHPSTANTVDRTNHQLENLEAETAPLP
Chain of Vasopressin V2 receptor (P30518 whole entry): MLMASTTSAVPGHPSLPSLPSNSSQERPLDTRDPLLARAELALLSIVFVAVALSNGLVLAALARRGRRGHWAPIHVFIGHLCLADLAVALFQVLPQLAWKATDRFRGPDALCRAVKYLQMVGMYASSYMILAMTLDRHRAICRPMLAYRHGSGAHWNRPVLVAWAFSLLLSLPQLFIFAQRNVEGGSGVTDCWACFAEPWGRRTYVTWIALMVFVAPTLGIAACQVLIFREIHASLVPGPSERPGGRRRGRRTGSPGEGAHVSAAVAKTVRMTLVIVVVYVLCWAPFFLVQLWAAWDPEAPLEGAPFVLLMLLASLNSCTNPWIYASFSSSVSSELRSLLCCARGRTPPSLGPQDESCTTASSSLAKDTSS
Chain of 5-hydroxytryptamine receptor 2A (P28223 whole entry): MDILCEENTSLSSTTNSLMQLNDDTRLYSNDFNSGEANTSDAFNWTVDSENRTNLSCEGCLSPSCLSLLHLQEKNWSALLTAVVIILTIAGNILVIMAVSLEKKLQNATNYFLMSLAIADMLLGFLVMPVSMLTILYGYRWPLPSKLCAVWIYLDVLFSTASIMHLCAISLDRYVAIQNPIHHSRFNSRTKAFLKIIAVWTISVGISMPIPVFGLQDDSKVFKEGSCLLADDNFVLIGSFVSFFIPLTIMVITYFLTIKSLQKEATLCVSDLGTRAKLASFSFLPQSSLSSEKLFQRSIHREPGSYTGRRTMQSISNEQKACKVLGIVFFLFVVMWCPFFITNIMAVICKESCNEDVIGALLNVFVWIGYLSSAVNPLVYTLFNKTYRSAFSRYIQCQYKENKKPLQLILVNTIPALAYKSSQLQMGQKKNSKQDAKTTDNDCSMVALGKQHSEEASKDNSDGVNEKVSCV

## C#CCN(C)Cc1ccccc1 [PARGYLINE]
[1]
  AC50: > 30 µM
[2]
  AC50: > 30 µM
[3]
  AC50: > 30 µM
Mu-type opioid receptor
  AC50: > 30 µM
[4]
  AC50: > 30 µM
[5]
  AC50: > 30 µM
[6]
  AC50: > 30 µM
[7]
  AC50: > 30 µM
D(3) dopamine receptor
  AC50: > 30 µM
[8]
  AC50: > 30 µM

## CC[N+](CC)(CCNC(=O)C(=O)NCC[N+](CC)(CC)Cc1ccccc1Cl)Cc1ccccc1Cl [AMBENONIUM]
Vasopressin V2 receptor
  AC50: > 30 µM
[3]
  AC50: > 30 µM
[6]
  AC50: > 30 µM
[7]
  AC50: 2.2 µM
[8]
  AC50: 0.7 µM

## CC(C)/N=c1\cc2n(-c3ccc(Cl)cc3)c3ccccc3nc-2cc1Nc1ccc(Cl)cc1 [CLOFAZIMINE]
Vasopressin V2 receptor
  AC50: > 30 µM
[3]
  AC50: > 30 µM
[5]
  AC50: > 30 µM
[6]
  AC50: > 30 µM
[7]
  AC50: > 30 µM
[8]
  AC50: 14 µM

## CS(=O)(=O)Nc1ccc([N+](=O)[O-])cc1Oc1ccccc1 [NIMESULIDE]
[1]
  AC50: > 30 µM
[2]
  AC50: > 30 µM
Vasopressin V2 receptor
  AC50: 26 µM
Mu-type opioid receptor
  AC50: > 30 µM
[4]
  AC50: > 30 µM
[5]
  AC50: > 30 µM
[9]
  AC50: > 30 µM
[7]
  AC50: > 30 µM
D(3) dopamine receptor
  AC50: > 30 µM
[8]
  AC50: > 30 µM
[10]
  AC50: > 30 µM

## N[C@@H](Cc1cc(I)c(Oc2cc(I)c(O)c(I)c2)c(I)c1)C(=O)O [LEVOTHYROXINE]
Vasopressin V2 receptor
  AC50: > 30 µM
[3]
  AC50: > 30 µM
[5]
  AC50: > 30 µM
[6]
  AC50: > 30 µM
[7]
  AC50: > 30 µM
[8]
  AC50: > 30 µM

## CN(C)CCOC(c1ccc(Cl)cc1)c1ccccn1 (stereo unspecified) [CARBINOXAMINE]
Vasopressin V2 receptor
  AC50: > 30 µM
[3]
  AC50: > 30 µM
[5]
  AC50: > 30 µM
[6]
  AC50: 19 µM
[7]
  AC50: 26 µM
[8]
  AC50: > 30 µM

## CCOC(=O)Nc1ccc(NCc2ccc(F)cc2)nc1N [FLUPIRTINE]
Vasopressin V2 receptor
  AC50: > 30 µM
[3]
  AC50: > 30 µM
[6]
  AC50: > 30 µM
[7]
  AC50: > 30 µM
[8]
  AC50: 18 µM

## CC(=O)NC[C@H]1CN(c2ccc(N3CCOCC3)c(F)c2)C(=O)O1 [LINEZOLID]
Vasopressin V2 receptor
  AC50: > 30 µM
[5]
  AC50: > 30 µM
[6]
  AC50: > 30 µM
[8]
  AC50: > 30 µM

## O=c1[nH]cc(F)c(=O)[nH]1 [FLUOROURACIL]
[1]
  AC50: > 30 µM
[2]
  AC50: > 30 µM
Vasopressin V2 receptor
  AC50: > 30 µM
Mu-type opioid receptor
  AC50: > 30 µM
[4]
  AC50: > 30 µM
[9]
  AC50: > 30 µM
D(3) dopamine receptor
  AC50: > 30 µM
[10]
  AC50: > 30 µM

## CC#CC(=O)N1CCC[C@H]1c1nc(-c2ccc(C(=O)Nc3ccccn3)cc2)c2c(N)nccn12 [ACALABRUTINIB]
[1]
  AC50: > 30 µM
[2]
  AC50: > 30 µM
Mu-type opioid receptor
  AC50: > 30 µM
[4]
  AC50: > 30 µM
[9]
  AC50: > 30 µM
D(3) dopamine receptor
  AC50: > 30 µM
[10]
  AC50: > 30 µM

## Cc1ccc(C(C)C)c(O)c1 [THYMOL]
[1]
  AC50: > 30 µM
[2]
  AC50: 23.3 µM
Mu-type opioid receptor
  AC50: > 30 µM
[4]
  AC50: > 30 µM
[9]
  AC50: > 30 µM
D(3) dopamine receptor
  AC50: > 30 µM
[10]
  AC50: 25.8 µM

## Cc1cccc(C)c1NC(=O)c1cc(S(N)(=O)=O)c(Cl)cc1O [XIPAMIDE]
[1]
  AC50: > 30 µM
[2]
  AC50: > 30 µM
Mu-type opioid receptor
  AC50: > 30 µM
[4]
  AC50: > 30 µM
[9]
  AC50: > 30 µM
D(3) dopamine receptor
  AC50: > 30 µM
[10]
  AC50: > 30 µM

## NC(=O)C1(N2CCCCC2)CCN(CCCC(=O)c2ccc(F)cc2)CC1 [PIPAMPERONE]
[1]
  AC50: > 30 µM
[2]
  AC50: > 30 µM
Mu-type opioid receptor
  AC50: 7.02 µM
[4]
  AC50: 11.5 µM
[9]
  AC50: > 30 µM
D(3) dopamine receptor
  AC50: 1.77 µM
[10]
  AC50: 0.398 µM

## CN(C)CCc1c[nH]c2ccc(CS(=O)(=O)N3CCCC3)cc12 [ALMOTRIPTAN]
Vasopressin V2 receptor
  AC50: > 30 µM
[3]
  AC50: 13 µM
[6]
  AC50: 30 µM
[7]
  AC50: > 30 µM
[8]
  AC50: > 30 µM

## CC(C)Nc1cccnc1N1CCN(C(=O)c2cc3cc(NS(C)(=O)=O)ccc3[nH]2)CC1 [DELAVIRDINE]
[1]
  AC50: > 30 µM
[2]
  AC50: > 30 µM
Mu-type opioid receptor
  AC50: 13.9 µM
[4]
  AC50: > 30 µM
[9]
  AC50: 24 µM
D(3) dopamine receptor
  AC50: > 30 µM
[10]
  AC50: > 30 µM
